What all share (assay type): in vivo, mouse
Test [1] has as its system NZB/NZWF1 mice. Nature of the test: Levels of proteinuria (colorimetric total urine protein assay). As to conditions: by the end of the study (43 weeks), antibodies two i.p. injections ~3 mg/kg, cyclophosphamide 50 mg/kg weekly.
Test [2] deals with NZB/NZWF1 mice. As to the kind of experiment: Titers of serum IgG antibodies to dsDNA by ELISA. As to conditions: antibody two i.p. injections ~3 mg/kg, cyclophosphamide 50 mg/kg weekly. In general terms: An ELISA detects its analyte on a solid surface through an enzyme-linked reagent.
Test [3] concerns NZB/NZWF1 mice. The settings on record: antibodies two doses ~3 mg/kg i.p., cyclophosphamide 50 mg/kg weekly injections, to 43 weeks of age.
The subject of test [4] is NZB/NZWF1 mice. Nature of the test: Histological examination of kidneys. As to conditions: trend, not statistically significant.
The subject of test [5] is NZB/NZWF1 mice. As to the kind of experiment: Kidney section staining for CD4+, CD8+ and FoxP3+ cells. As to conditions: kidney sections of NZB/NZWF1 mice scored blindly on a scale of 0-4.

From US9617343B2, “Methods and compositions for treating lupus” (GENZYME CORPORATION, priority 2009, dated 2017) come the findings set out here.

Structures are written as SMILES.

Consider `O=P1(N(CCCl)CCCl)NCCCO1` (centres unmarked) [cyclophosphamide, Cyclophosphamide], for which the “mice that reached severe proteinuria (>500 mg/dL/day)” value in the test on NZB/NZWF1 mice [1] came out at 20%. Also, the “effect on development of autoantibodies against dsDNA (serum IgG titers)” value with NZB/NZWF1 mice [2] is “effectively reduced”. Moreover, the survival with NZB/NZWF1 mice [3] came to 80%. Besides, the median glomerulopathy scores result in the test with NZB/NZWF1 mice [4] (compared to rat IgG and vehicle control groups) is reported as “reduced”. Besides, the interstitial inflammation entry with NZB/NZWF1 mice [4] is “Reduced”. For the same molecule, in the test with NZB/NZWF1 mice [5], the “CD4+ cells infiltrating the kidneys” value is reported as “significant decrease”, the “CD8+ cells infiltrating the kidneys” value is on record as “significant decrease” and the “FoxP3+ cells infiltrating the kidneys” value is on record as “significant decrease”.
